Here are results for 35 molecules from patent publication US20160145257A1, “SUBSTITUTED XANTHINES AND METHODS OF USE THEREOF” (Hydra Biosciences, Inc., priority 2013, published 2016).

Structures can show the parent of a compound that is named as a salt.

This test has as its target T1, hTRPC5 (Homo sapiens, UniProt Q9UL62).
T1 construct: expressed in transfected cells; host or cells: HEK293 TREx cells with inducible TRPC5 expression
T1 sequence (Q9UL62 1-973): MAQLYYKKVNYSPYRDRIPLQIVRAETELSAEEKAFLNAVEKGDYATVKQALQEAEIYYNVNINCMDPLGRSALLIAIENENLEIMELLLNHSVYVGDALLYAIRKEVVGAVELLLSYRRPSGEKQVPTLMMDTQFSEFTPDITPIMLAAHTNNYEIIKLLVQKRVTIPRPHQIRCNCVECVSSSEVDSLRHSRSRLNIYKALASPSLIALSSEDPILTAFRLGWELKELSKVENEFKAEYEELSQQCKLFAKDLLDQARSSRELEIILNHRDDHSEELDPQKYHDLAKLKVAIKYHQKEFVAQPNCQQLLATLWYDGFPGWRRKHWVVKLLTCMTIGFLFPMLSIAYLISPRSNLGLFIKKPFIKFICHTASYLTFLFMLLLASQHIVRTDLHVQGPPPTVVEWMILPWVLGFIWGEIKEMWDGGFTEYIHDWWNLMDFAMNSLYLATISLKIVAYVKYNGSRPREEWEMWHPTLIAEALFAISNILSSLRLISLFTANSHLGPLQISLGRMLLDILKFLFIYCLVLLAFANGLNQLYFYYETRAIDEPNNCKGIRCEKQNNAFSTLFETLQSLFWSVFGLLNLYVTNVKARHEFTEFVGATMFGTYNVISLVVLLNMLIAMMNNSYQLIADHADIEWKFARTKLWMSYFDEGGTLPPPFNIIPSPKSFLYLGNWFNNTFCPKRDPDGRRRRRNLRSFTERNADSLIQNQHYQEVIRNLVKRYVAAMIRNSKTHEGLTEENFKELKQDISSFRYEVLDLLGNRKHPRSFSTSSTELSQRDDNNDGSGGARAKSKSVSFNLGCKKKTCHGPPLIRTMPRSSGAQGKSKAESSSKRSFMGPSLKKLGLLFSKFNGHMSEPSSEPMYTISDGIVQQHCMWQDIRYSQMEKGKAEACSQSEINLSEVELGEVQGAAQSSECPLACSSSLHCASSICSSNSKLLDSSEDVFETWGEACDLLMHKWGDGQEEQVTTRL
Kind of test: Whole-cell patch clamp, block of LaCl3-activated TRPC5 inward current. The conditions noted are these: TRPC5-expressing HEK293 TREx cells, 80 μM LaCl3, inward current, IC50 estimated from 5 μM and 500 nM, read-out: hTRPC5 Patch La3+ Inwd (nM) (All Batches). The test is classed as cell-based. The procedure, abridged:
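Whole-cell recordings in induced TRPC5-expressing HEK293 TREx cells, holding −40 mV, 400 ms ramps −120 to +100 mV every 5 s; current activated by 80 μM external LaCl3 and 1,400 nM pipette free Ca2+ (pH 7.2 internal, 7.4 external). Inward block at −80 mV, with LaCl3 present; IC50 estimated from testing at 5 μM and 500 nM.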
Consider `CC(Cc1nc2c(c(=O)n(C)c(=O)n2C)n1Cc1cccc(Br)c1)C(=O)O` (centres unmarked) [Compound 117, 3-(7-(3-Bromobenzyl)-1,3-dimethyl-2,6-dioxo-2,3,6,7-tetrahydro-1H-purin-8-yl)-2-methylpropanoic acid], for which the IC50 is 2000 to 10000 nM.

Consider `CCCOCCc1nc2c(c(=O)n(C)c(=O)n2C)n1Cc1ccc(C#N)cc1` [Compound 118], for which the IC50 is 2000 to 10000 nM.

Take `CCCOCCc1nc2c(c(=O)n(C)c(=O)n2C)n1Cc1cccc(C#N)c1` [Compound 119]: the IC50 was 2000 to 10000 nM.

Regarding `CCCC(=O)CCOc1nc2c(c(=O)n(C)c(=O)n2C)n1Cc1cccc(Br)c1` [Compound 120], the IC50 is 2000 to 10000 nM.

As for `CCCOCCc1nc2c(c(=O)n(C)c(=O)n2C)n1Cc1cccc(C(N)=O)c1` [Compound 121], the IC50 was 2000 to 10000 nM.

Turning to `CCCC(O)C(C)(C)Sc1nc2c(c(=O)n(C)c(=O)n2C)n1Cc1cccc(Br)c1` (centres unmarked) [Compound 122, 7-(3-bromobenzyl)-8-(3-hydroxy-2-methylhexan-2-ylthio)-1,3-dimethyl-1H-purine-2,6(3H,7H)-dione], the IC50 is below 100 nM.

For the molecule `C=C(CC(=O)OCC)c1nc2c(c(=O)n(C)c(=O)n2C)n1Cc1cccc(Br)c1` [Compound 123, ethyl 3-(7-(3-bromobenzyl)-1,3-dimethyl-2,6-dioxo-2,3,6,7-tetrahydro-1H-purin-8-yl)but-3-enoate], the IC50 is 1000 to 2000 nM.

On to `Cn1c(=O)c2c(nc(Cc3cccc(CO)c3)n2Cc2cccc(Br)c2)n(C)c1=O` [Compound 124], for which the IC50 is 2000 to 10000 nM.

With `CCOCc1cccc(C(CC)c2nc3c(c(=O)n(C)c(=O)n3C)n2Cc2cccc(Br)c2)c1` (centres unmarked) [Compound 125, 7-(3-bromobenzyl)-8-(1-(3-(ethoxymethyl)phenyl)propyl)-1,3-dimethyl-1H-purine-2,6(3H,7H)-dione], the IC50 is 500 to 1000 nM.

Regarding `CCOCc1cccc(Oc2nc3c(c(=O)n(C)c(=O)n3C)n2Cc2cccc(Br)c2)c1` [Compound 126, 7-(3-bromobenzyl)-8-(3-(ethoxymethyl)phenoxy)-1,3-dimethyl-1H-purine-2,6(3H,7H)-dione], the IC50 is 100 to 500 nM.

As for `CN(C)C(=O)c1cccc(Oc2nc3c(c(=O)n(C)c(=O)n3C)n2Cc2cccc(Br)c2)c1` [Compound 127], the IC50 is 2000 to 10000 nM.

`CCCOCCc1nc2c(c(=O)n(C)c(=O)n2C)n1Cc1cccc(-c2ccccc2)c1` [Compound 128, 7-(biphenyl-3-ylmethyl)-1,3-dimethyl-8-(2-propoxyethyl)-1H-purine-2,6(3H,7H)-dione]: the IC50 was 100 to 500 nM.

With `CCCOCCc1nc2c(c(=O)n(C)c(=O)n2C)n1Cc1ccc(-c2ccccc2)cc1` [Compound 129, 7-(biphenyl-4-ylmethyl)-1,3-dimethyl-8-(2-propoxyethyl)-1H-purine-2,6(3H,7H)-dione], the IC50 was 500 to 1000 nM.

On to `CCc1coc(CSc2nc3c(c(=O)n(C)c(=O)n3C)n2Cc2cccc(OC)c2)n1` [Compound 130, 8-((4-ethyloxazol-2-yl)methylthio)-7-(3-methoxybenzyl)-1,3-dimethyl-1H-purine-2,6(3H,7H)-dione], for which the IC50 was 500 to 1000 nM.

As to `CCc1coc(CSc2nc3c(c(=O)n(C)c(=O)n3C)n2Cc2ccc(OC)cc2)n1` [Compound 131, 8-((4-ethyloxazol-2-yl)methylthio)-7-(4-methoxybenzyl)-1,3-dimethyl-1H-purine-2,6(3H,7H)-dione], the IC50 was 500 to 1000 nM.

`CCc1coc(CSc2nc3c(c(=O)n(C)c(=O)n3C)n2Cc2cccc(C)c2)n1` [Compound 132, 8-((4-ethyloxazol-2-yl)methylthio)-1,3-dimethyl-7-(3-methylbenzyl)-1H-purine-2,6(3H,7H)-dione]: the IC50 is 100 to 500 nM.

As for `CCc1coc(CSc2nc3c(c(=O)n(C)c(=O)n3C)n2Cc2ccc(C)cc2)n1` [Compound 133, 8-((4-ethyloxazol-2-yl)methylthio)-1,3-dimethyl-7-(4-methylbenzyl)-1H-purine-2,6(3H,7H)-dione], the IC50 was 100 to 500 nM.

Take `CCc1coc(CSc2nc3c(c(=O)n(C)c(=O)n3C)n2Cc2cccc(Cl)c2)n1` [Compound 134, 7-(3-chlorobenzyl)-8-((4-ethyloxazol-2-yl)methylthio)-1,3-dimethyl-1H-purine-2,6(3H,7H)-dione]: the IC50 is 100 to 500 nM.

As for `CCOC(=O)CCC(C)c1nc2c(c(=O)n(C)c(=O)n2C)n1Cc1cccc(Br)c1` (centres unmarked) [Compound 135, Ethyl 4-(7-(3-bromobenzyl)-1,3-dimethyl-2,6-dioxo-2,3,6,7-tetrahydro-1H-purin-8-yl)pentanoate], the IC50 was 500 to 1000 nM.

On to `CCOC(=O)C(C)CCc1nc2c(c(=O)n(C)c(=O)n2C)n1Cc1cccc(Br)c1` (centres unmarked) [Compound 136, Ethyl 4-(7-(3-bromobenzyl)-1,3-dimethyl-2,6-dioxo-2,3,6,7-tetrahydro-1H-purin-8-yl)-2-methylbutanoate], for which the IC50 is 1000 to 2000 nM.

For `Cn1c(=O)c2c(nc(Oc3cccc(C(F)(F)F)c3)n2Cc2cccc(Cl)c2)n(C)c1=O` [Compound 137, 7-(3-Chlorobenzyl)-1,3-dimethyl-8-(3-(trifluoromethyl)phenoxy)-1H-purine-2,6(3H,7H)-dione], the IC50 is 100 to 500 nM.

`Cn1c(=O)c2c(nc(Oc3cccc(C(F)(F)F)c3)n2Cc2cccc(Br)c2)n(C)c1=O` [Compound 138, 7-(3-Bromobenzyl)-1,3-dimethyl-8-(3-(trifluoromethyl)phenoxy)-1H-purine-2,6(3H,7H)-dione]: the IC50 was 100 to 500 nM.

In the case of `Cn1c(=O)c2c(nc(Oc3cccc(CO)c3)n2Cc2cccc(Cl)c2)n(C)c1=O` [Compound 140], the IC50 was 2000 to 10000 nM.

Regarding `CCCOCCc1nc2c(c(=O)n(C)c(=O)n2C)n1Cc1cccc(CO)c1` [Compound 141], the IC50 was 2000 to 10000 nM.

`Cn1c(=O)c2c(nc(Oc3cccc(C(F)(F)F)c3)n2Cc2ccc(Cl)nc2)n(C)c1=O` [Compound 143, 7-((6-chloropyridin-3-yl)methyl)-1,3-dimethyl-8-(3-(trifluoromethyl)phenoxy)-1H-purine-2,6(3H,7H)-dione]: the IC50 was 2000 to 10000 nM.

Take `Cn1c(=O)c2c(nc(Oc3ccc(C(F)(F)F)cc3)n2Cc2ccc(Cl)cc2)n(C)c1=O` [Compound 144]: the IC50 was 500 to 1000 nM.

As for `Cn1c(=O)c2c(nc(OCc3cccc(C(F)(F)F)c3)n2Cc2ccc(Cl)cc2)n(C)c1=O` [Compound 145, 7-(4-chlorobenzyl)-1,3-dimethyl-8-(3-(trifluoromethyl)benzyloxy)-1H-purine-2,6(3H,7H)-dione], the IC50 was below 100 nM.

As for `CCc1coc(CSc2nc3c(c(=O)n(C)c(=O)n3C)n2Cc2ccc(Cl)cc2)n1` [Compound 146, 7-(4-chlorobenzyl)-8-((4-ethyloxazol-2-yl)methylthio)-1,3-dimethyl-1H-purine-2,6(3H,7H)-dione], the IC50 is below 100 nM.

For `CCc1coc(CSc2nc3c(c(=O)n(C)c(=O)n3C)n2Cc2cccc(F)c2)n1` [Compound 147, 8-((4-ethyloxazol-2-yl)methylthio)-7-(3-fluorobenzyl)-1,3-dimethyl-1H-purine-2,6(3H,7H)-dione], the IC50 is 100 to 500 nM.

Turning to `CCc1coc(CSc2nc3c(c(=O)n(C)c(=O)n3C)n2Cc2ccc(OC(F)(F)F)cc2)n1` [Compound 148, 8-((4-ethyloxazol-2-yl)methylthio)-1,3-dimethyl-7-(4-(trifluoromethoxy)benzyl)-1H-purine-2,6(3H,7H)-dione], the IC50 is 100 to 500 nM.

Regarding `CCCOCCc1nc2c(c(=O)n(C)c(=O)n2C)n1Cc1ccc(C(N)=O)cc1` [Compound 149], the IC50 is 2000 to 10000 nM.

In the case of `CCCC(=O)C(C)(C)Sc1nc2c(c(=O)n(C)c(=O)n2C)n1Cc1cccc(Br)c1` [Compound 150, 7-(3-bromobenzyl)-1,3-dimethyl-8-(2-methyl-3-oxohexan-2-ylthio)-1H-purine-2,6(3H,7H)-dione], the IC50 is below 100 nM.

Consider `CCCOCCc1nc2c(c(=O)n(C)c(=O)n2C)n1Cc1ccc(CO)cc1` [Compound 151], for which the IC50 is 2000 to 10000 nM.

Turning to `CNCc1cccc(Oc2nc3c(c(=O)n(C)c(=O)n3C)n2Cc2cccc(Cl)c2)c1` [Compound 152, hydrochloride], the IC50 was 2000 to 10000 nM.

As for `CN(C)Cc1cccc(Oc2nc3c(c(=O)n(C)c(=O)n3C)n2Cc2cccc(Cl)c2)c1` [Compound 153, 7-(3-Chlorobenzyl)-8-(3-((dimethylamino)methyl)phenoxy)-1,3-dimethyl-1H-purine-2,6(3H,7H)-dione hydrochloride], the IC50 was 2000 to 10000 nM.
